ChEMBL document CHEMBL3091292, “Towards tropomyosin-related kinase B (TrkB) receptor ligands for brain imaging with PET: radiosynthesis and evaluation of 2-(4-[(18)F]fluorophenyl)-7,8-dihydroxy-4H-chromen-4-one and 2-(4-([N-methyl-(11)C]-dimethylamino)phenyl)-7,8-dihydroxy-4H-chromen-4-one” (Bioorg Med Chem, 2013)

Assays:
[1] = Plasma protein binding in rat after 15 mins; type: ADME, cell-free; conditions: read-out: PPB (converted)
[2] = Half life in rat plasma by HPLC analysis; type: ADME, cell-free
[3] = Octanol-phosphate buffered saline partition coefficient, log D of the compound at pH 7.4 by shake-flask method; type: physicochemical
Brain = assay: Biodistribution in Sprague-Dawley rat brain assessed as drug level per body weight at 230 to 876 uCi, iv after 60 mins by PET imaging analysis; type: ADME, organism-based; conditions: in vivo, 1 h
Hippocampus [4] = assay: Biodistribution in rat hippocampus after 65 mins by autoradiography; type: ADME, organism-based; conditions: in vivo
Thalamus [5] = assay: Biodistribution in rat thalamus after 65 mins by autoradiography; type: ADME, organism-based; conditions: in vivo
Rattus norvegicus [6] = assay: Biodistribution in Sprague-Dawley rat whole brain assessed as drug level per body weight at 230 to 876 uCi, iv after 30 mins by PET imaging analysis; type: ADME, organism-based; conditions: in vivo, 0.5 h
Hippocampus [7] = assay: Biodistribution in rat hippocampus after 65 mins by autoradiography relative to control in presence of 7,8-dihydroxyflavone; type: ADME, organism-based; conditions: in vivo
Striatum [8] = assay: Biodistribution in rat striatum after 65 mins by autoradiography relative to control in presence of BDNF; type: ADME, organism-based; conditions: in vivo
Liver = assay: Biodistribution in Sprague-Dawley rat liver assessed as drug level per body weight at 230 to 876 uCi, iv after 120 mins by PET imaging analysis; type: ADME, organism-based; conditions: in vivo, 2 h
Kidney = assay: Biodistribution in Sprague-Dawley rat kidney assessed as drug level per body weight at 230 to 876 uCi, iv after 60 mins by PET imaging analysis; type: ADME, organism-based; conditions: in vivo, 1 h
Cerebellum [9] = assay: Biodistribution in rat cerebellum after 65 mins by autoradiography relative to control in presence of BDNF; type: ADME, organism-based; conditions: in vivo
Cerebellum [10] = assay: Biodistribution in rat cerebellum after 65 mins by autoradiography relative to control in presence of 7,8-dihydroxyflavone; type: ADME, organism-based; conditions: in vivo
Rattus norvegicus [11] = species on record: Rattus norvegicus; assay: Biodistribution in rat caudate putamen after 65 mins by autoradiography; type: ADME, organism-based; conditions: in vivo
[12] = Drug degradation in rat plasma after 90 mins by HPLC analysis; type: ADME, cell-free; conditions: read-out: Drug degradation
Hippocampus [13] = assay: Biodistribution in rat hippocampus after 65 mins by autoradiography relative to control in presence of BDNF; type: ADME, organism-based; conditions: in vivo
Thalamus [14] = assay: Biodistribution in rat thalamus after 65 mins by autoradiography relative to control in presence of 7,8-dihydroxyflavone; type: ADME, organism-based; conditions: in vivo
Aorta = assay: Biodistribution in Sprague-Dawley rat aorta assessed as drug level per body weight at 230 to 876 uCi, iv after 30 mins by PET imaging analysis; type: ADME, organism-based; conditions: in vivo, 0.5 h
Cortex [15] = assay: Biodistribution in rat cortex after 65 mins by autoradiography relative to control in presence of BDNF; type: ADME, organism-based; conditions: in vivo
Cerebellum [16] = assay: Biodistribution in rat cerebellum after 65 mins by autoradiography; type: ADME, organism-based; conditions: in vivo
Cerebral cortex = assay: Biodistribution in rat cerebral cortex after 65 mins by autoradiography; type: ADME, organism-based; conditions: in vivo
Cortex [17] = assay: Biodistribution in rat cortex after 65 mins by autoradiography relative to control in presence of 7,8-dihydroxyflavone; type: ADME, organism-based; conditions: in vivo
Thalamus [18] = assay: Biodistribution in rat thalamus after 65 mins by autoradiography relative to control in presence of BDNF; type: ADME, organism-based; conditions: in vivo
Striatum [19] = assay: Biodistribution in rat striatum after 65 mins by autoradiography relative to control in presence of 7,8-dihydroxyflavone; type: ADME, organism-based; conditions: in vivo
[20] = biological target: BDNF/NT-3 growth factors receptor (Homo sapiens, UniProt Q16620); assay: Binding affinity to TrkB receptor extracellular domain (unknown origin) after 10 mins by liquid Scatchard plot analysis
BDNF/NT-3 growth factors receptor, sequence (Q16620 whole entry, the tested form may be a part): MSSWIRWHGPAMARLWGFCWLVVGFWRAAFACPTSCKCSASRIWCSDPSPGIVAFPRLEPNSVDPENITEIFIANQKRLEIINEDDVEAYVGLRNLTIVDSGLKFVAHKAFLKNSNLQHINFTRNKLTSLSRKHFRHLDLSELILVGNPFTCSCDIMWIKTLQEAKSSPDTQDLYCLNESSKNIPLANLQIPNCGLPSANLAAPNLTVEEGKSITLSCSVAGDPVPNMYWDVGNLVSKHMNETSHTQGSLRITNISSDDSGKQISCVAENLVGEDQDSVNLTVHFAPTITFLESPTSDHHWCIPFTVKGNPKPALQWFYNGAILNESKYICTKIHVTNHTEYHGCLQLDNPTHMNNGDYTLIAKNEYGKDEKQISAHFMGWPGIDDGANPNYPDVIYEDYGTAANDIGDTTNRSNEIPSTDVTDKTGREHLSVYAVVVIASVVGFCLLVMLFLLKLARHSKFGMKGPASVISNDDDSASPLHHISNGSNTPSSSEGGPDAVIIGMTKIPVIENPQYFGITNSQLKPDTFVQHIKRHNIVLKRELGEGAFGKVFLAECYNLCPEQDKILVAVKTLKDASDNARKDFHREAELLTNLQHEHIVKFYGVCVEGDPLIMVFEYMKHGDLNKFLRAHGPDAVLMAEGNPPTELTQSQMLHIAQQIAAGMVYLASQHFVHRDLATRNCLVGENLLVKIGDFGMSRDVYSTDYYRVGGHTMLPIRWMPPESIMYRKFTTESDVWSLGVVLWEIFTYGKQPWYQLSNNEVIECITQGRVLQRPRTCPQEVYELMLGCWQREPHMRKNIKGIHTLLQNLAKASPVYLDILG

CN([11CH3])c1ccc(-c2cc(=O)c3ccc(O)c(O)c3o2)cc1
fraction unbound at 0.25 h [1]: 0.81 | half-life [2]: 10 min | logD [3]: 2.8 | SUV (Brain): 0.7

O=c1cc(-c2ccc([18F])cc2)oc2c(O)c(O)ccc12
Drug uptake (Hippocampus [4]): Active | Drug uptake (Thalamus [5]): Active | SUV (Rattus norvegicus [6]): 0.64 | Drug uptake (Hippocampus [7]): 18% | Drug uptake (Striatum [8]): 14% | fraction unbound at 0.25 h [1]: 0.76 | SUV (Liver): 6.8 | SUV (Kidney): 4.38 | Drug uptake (Cerebellum [9]): 12% | Drug uptake (Cerebellum [10]): 23% | logD [3]: 2.2 | Drug uptake (Rattus norvegicus [11]): Active | metabolised at 1.5 h [12]: 10% | Drug uptake (Hippocampus [13]): 10% | Drug uptake (Thalamus [14]): 19% | SUV (Aorta): 6.62 | Drug uptake (Cortex [15]): 16% | Drug uptake (Cerebellum [16]): Active | Drug uptake (Cerebral cortex): Active | Drug uptake (Cortex [17]): 17% | Drug uptake (Thalamus [18]): 11% | Drug uptake (Striatum [19]): 21%

O=c1cc(-c2ccccc2)oc2c(O)c(O)ccc12 [7,8-DIHYDROXYFLAVONE]
Kd [20]: 320 nM
